# Measured values from patent publication US20240336938A1, “COMPOSITIONS AND METHODS FOR EFFECTIVE DELIVERY OF POLYNUCLEOTIDES TO CELLS” (WUHAN UNIVERSITY, priority 2021, published 2024).
# Key:
# STING [1] = test: STING inhibitor pretreatment of THP-1 cells before HSV-1 stimulation, qPCR; type: cell-based, human; conditions: THP1 cells, indicated doses
# STING [2] = test: STING inhibitor pretreatment of T cells before DNA electroporation; type: cell-based, human
smiles,measurement,setting,value
CCc1ccc(NC(=O)Nc2c[nH]c3ccccc23)cc1 [H151],ISG56 and IFN-β response to HSV-1,STING [1],positive dose-response
same,IFNβ and ISG56 expression in DNA transfected T cells under inhibitor,"STING [2]; 1 μM pretreatment, qPCR",upregulated
same,rescue of DNA-induced cell death,"STING [2]; 1 μM, 16 h pretreatment, cell number 72 h post-EP",failed to rescue DNA-induced cell death
